Results reported in publication PMC6028563, “Probing Substituents in the 1- and 3-Position: Tetrahydropyrazino-Annelated Water-Soluble Xanthine Derivatives as Multi-Target Drugs With Potent Adenosine Receptor Antagonistic Activity” (Frontiers in Chemistry, 2018).

Experiments:
rat A1 AR = molecular target: T1, rat A1 AR (Rattus norvegicus, UniProt P25099); assay: Radioligand binding assay at rat A1 AR (rat brain cortex) vs. [^3H]CCPA; conditions: rat (r); rat brain cortex; n = 3
T1 construct: A1 ARs of rat brain cortical membrane; from tissue; host or cells: rat brain cortex membranes
T1 sequence (P25099 1-326): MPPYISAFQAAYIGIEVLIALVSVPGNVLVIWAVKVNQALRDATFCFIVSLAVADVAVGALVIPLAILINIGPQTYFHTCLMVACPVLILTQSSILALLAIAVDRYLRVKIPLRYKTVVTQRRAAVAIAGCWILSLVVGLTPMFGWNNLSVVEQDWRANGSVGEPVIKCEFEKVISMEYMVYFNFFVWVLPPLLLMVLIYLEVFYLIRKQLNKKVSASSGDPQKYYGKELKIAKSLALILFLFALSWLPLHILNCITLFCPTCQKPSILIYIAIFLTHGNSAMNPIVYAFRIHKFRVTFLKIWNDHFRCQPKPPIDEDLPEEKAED
Description: (§1) Membrane preparations and radioligand binding assays at rat A1 (rat brain cortex) and rat A2A ARs (rat brain striatum) were performed as previously described (Ozola et al., [2003]; Alnouri et al., [2015]). For assays at human A1, A2A, A2B, and A3 ARs, CHO cell membranes expressing one of the human AR subtypes were used as previously reported (Klotz et al., [1998]; Alnouri et al., [2015]; De Filippo et al., [2016]).
(§2) The synthesized tetrahydropyrazino[2,1-f ]purinediones 13–20 were evaluated in radioligand binding assays for their affinity to A1 ARs of rat brain cortical membrane and to A2A ARs of rat brain striatal membrane preparations. Selected compounds were further investigated for their affinity to human A1 and A2A ARs recombinantly expressed in Chinese hamster ovary (CHO) cells. All compounds were additionally investigated for their affinity to human A2B and A3 ARs recombinantly expressed in CHO cells to determine their AR subtype selectivity. […] It is well known that all xanthine derivatives lacking a ribose moiety, including tricyclic compounds, can only block ARs, but never act as AR agonists; therefore, additional functional studies were not required. […] Potent MAO-B inhibitors were additionally investigated for inhibition of human MAO-A to assess their selectivity. Results are presented in Tables 1–6, and data of standard ligands are included for comparison.

human A3 AR = molecular target: T2, human A3 AR (Homo sapiens, UniProt P0DMS8); assay: Radioligand binding assay at human A3 AR vs. [^3H]PSB-11; conditions: for Ki: CHO cell membranes, n = 2 (n = 3 where marked a), read-out: Ki ± SEM, A3 vs. [^3H]PSB-11; for inhibition at 10 µM: at 10,000 nM, read-out: % inhibition of radioligand binding at indicated concentration, A3 vs. [^3H]PSB-11
T2 construct: expressed in transfected cells; host or cells: CHO cells
T2 sequence (P0DMS8 1-318): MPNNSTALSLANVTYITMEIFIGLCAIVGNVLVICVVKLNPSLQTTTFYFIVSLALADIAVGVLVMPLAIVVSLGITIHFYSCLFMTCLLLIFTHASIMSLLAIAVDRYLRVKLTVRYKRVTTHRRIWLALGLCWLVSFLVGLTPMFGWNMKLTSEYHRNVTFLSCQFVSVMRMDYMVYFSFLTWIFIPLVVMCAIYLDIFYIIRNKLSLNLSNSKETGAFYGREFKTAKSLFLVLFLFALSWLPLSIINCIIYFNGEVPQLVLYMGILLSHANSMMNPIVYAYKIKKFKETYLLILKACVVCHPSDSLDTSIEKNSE
Description: as §1, §2

human A2B AR = molecular target: T3, human A2B AR (Homo sapiens, UniProt P29275); assay: Radioligand binding assay at human A2B AR vs. [^3H]PSB-603; conditions: for Ki: CHO cell membranes, n = 2 (n = 3 where marked a), read-out: Ki ± SEM, A2B vs. [^3H]PSB-603; for inhibition at 1 µM: at 1,000 nM, read-out: % inhibition of radioligand binding at indicated concentration, A2B vs. [^3H]PSB-603
T3 construct: expressed in transfected cells; host or cells: CHO cells
T3 sequence (P29275 1-332): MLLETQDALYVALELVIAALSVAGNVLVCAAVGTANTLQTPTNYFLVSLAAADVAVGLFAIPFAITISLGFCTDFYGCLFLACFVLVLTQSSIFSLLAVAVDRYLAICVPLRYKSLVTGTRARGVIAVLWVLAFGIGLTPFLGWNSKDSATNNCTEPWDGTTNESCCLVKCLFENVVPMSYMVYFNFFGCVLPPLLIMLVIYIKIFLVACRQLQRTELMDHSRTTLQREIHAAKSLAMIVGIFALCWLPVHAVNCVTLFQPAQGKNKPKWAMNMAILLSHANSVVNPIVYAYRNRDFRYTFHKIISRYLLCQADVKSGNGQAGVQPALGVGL
Description: as §1, §2

human A1 AR = molecular target: T4, human A1 AR (Homo sapiens, UniProt P30542); assay: Radioligand binding assay at human A1 AR vs. [^3H]CCPA; conditions: human (h); CHO cell membranes; n = 3
T4 construct: expressed in transfected cells; host or cells: CHO cells
T4 sequence (P30542 1-326): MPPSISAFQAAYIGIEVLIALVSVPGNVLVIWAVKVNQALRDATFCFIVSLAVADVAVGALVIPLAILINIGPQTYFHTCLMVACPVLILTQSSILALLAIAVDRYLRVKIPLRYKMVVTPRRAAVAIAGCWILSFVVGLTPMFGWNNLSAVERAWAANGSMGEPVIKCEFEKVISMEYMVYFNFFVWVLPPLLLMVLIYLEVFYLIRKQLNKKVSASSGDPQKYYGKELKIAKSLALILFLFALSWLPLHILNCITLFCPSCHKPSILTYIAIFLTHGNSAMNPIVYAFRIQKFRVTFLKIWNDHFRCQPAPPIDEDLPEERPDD
Description: as §1, §2

rat A2A AR = molecular target: T5, rat A2A AR (Rattus norvegicus, UniProt P30543); assay: Radioligand binding assay at rat A2A AR (rat brain striatum) vs. [^3H]MSX-2; conditions: rat (r); rat brain striatum; n = 3; read-out: Ki ± SEM, A2A vs. [^3H]MSX-2
T5 construct: A2A ARs of rat brain striatal membrane preparations; from tissue; host or cells: rat brain striatum membranes
T5 sequence (P30543 whole entry): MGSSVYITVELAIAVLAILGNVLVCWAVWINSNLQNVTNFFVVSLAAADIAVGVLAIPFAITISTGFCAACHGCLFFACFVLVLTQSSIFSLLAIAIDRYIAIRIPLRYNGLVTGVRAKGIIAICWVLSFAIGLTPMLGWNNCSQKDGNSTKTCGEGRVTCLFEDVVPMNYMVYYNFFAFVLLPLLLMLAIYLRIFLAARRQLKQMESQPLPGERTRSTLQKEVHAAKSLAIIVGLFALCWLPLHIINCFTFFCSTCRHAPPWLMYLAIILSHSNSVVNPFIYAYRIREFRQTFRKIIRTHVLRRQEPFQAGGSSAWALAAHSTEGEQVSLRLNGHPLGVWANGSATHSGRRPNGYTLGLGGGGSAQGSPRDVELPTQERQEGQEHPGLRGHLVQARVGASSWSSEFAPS
Description: as §1, §2

recombinant human MAO-B = molecular target: T6, recombinant human MAO-B (Homo sapiens, UniProt P27338); assay: Monoamine oxidase assay (Amplex Red), MAO-B; format: biochemical; conditions: for inhibition at 10 µM: at 10,000 nM (10 μM), read-out: % inhibition at indicated concentration, Human MAO-B; for IC50: n = 3, read-out: IC50 ± SEM, Human MAO-B
T6 construct: purchased Sigma-Aldrich M7441; host or cells: baculovirus-infected insect cells
T6 sequence (P27338 1-520): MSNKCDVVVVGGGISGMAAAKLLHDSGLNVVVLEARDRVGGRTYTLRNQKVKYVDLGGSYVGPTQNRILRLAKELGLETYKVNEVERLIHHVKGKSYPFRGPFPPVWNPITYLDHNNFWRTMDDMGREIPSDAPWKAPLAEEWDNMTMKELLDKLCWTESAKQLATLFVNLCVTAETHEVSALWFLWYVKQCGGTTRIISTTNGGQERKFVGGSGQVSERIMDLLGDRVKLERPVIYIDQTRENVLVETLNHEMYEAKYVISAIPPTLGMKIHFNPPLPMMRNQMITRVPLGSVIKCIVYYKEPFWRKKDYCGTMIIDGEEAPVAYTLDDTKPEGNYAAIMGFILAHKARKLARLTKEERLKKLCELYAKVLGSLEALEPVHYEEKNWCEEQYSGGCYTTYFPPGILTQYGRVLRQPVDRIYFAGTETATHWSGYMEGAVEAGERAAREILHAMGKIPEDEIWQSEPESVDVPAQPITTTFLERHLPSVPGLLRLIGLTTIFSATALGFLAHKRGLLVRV
Description: The determination of MAO-A and MAO-B inhibition was performed using commercially available recombinant human MAO-A and MAO-B enzymes expressed in baculovirus-infected insects sells (Sigma-Aldrich, M7316 and M7441) applying the commercially available Amplex® Red monoamine oxidase assay kit (Invitrogen A12214). The assays were performed as previously described. The determination of rat MAO-B inhibition was performed using mitochondrial-enriched fractions from male Sprague Dawley rat livers. […]

human A2A AR = molecular target: T7, human A2A AR (Homo sapiens, UniProt P29274); assay: Radioligand binding assay at human A2A AR vs. [^3H]MSX-2; conditions: CHO cell membranes, n = 3, read-out: Ki ± SEM, A2A vs. [^3H]MSX-2
T7 construct: expressed in transfected cells; host or cells: CHO cells
T7 sequence (P29274 whole entry): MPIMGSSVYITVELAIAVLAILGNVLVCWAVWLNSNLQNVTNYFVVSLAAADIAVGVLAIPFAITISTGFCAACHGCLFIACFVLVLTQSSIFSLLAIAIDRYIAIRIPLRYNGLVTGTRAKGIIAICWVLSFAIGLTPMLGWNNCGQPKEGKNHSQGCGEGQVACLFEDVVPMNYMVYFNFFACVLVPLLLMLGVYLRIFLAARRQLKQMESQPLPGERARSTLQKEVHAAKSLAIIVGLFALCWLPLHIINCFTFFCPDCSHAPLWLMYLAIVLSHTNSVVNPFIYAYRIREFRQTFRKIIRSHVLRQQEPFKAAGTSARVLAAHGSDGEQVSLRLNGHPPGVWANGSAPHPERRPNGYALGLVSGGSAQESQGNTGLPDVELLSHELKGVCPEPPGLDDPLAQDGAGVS
Description: as §1, §2

| Ki (rat A1 AR) [nM] | Ki (human A3 AR) [nM] | inhibition at 10 µM (human A3 AR) [%] | Ki (human A2B AR) [nM] | inhibition at 1 µM (human A2B AR) [%] | Ki (human A1 AR) [nM] | Ki (rat A2A AR) [nM] | inhibition at 10 µM (recombinant human MAO-B) [%] | IC50 (recombinant human MAO-B) [nM] | Ki (human A2A AR) [nM] | Compound |
| --- | --- | --- | --- | --- | --- | --- | --- | --- | --- | --- |
| 111 ± 25 | > 10000 | 39 | > 1000 | 5 | 330 ± 67 | 801 ± 99 | 23 | > 10000 | 503 ± 121 | CCn1c(=O)c2c(nc3n2CCN(Cc2cc(F)cc(C(F)(F)F)c2)C3)n(C)c1=O [Compound 14p, 3-ethyl-8-(3-fluoro-5-(trifluoromethyl)benzyl)-1-methyl-6,7,8,9-tetrahydropyrazino[2,1-f]purine-2,4(1H,3H)-dione] |
| 118 ± 28 | > 10000 | 35 | > 1000 | 2 | 180 ± 28 | 245 ± 39 | 20 | > 10000 | 282 ± 38 | C#CCn1c(=O)c2c(nc3n2CCN(Cc2ccccc2)C3)n(CC)c1=O [Compound 20e, 8-benzyl-1-ethyl-3-propargyl-6,7,8,9-tetrahydropyrazino[2,1-f]purine-2,4(1H,3H)-dione] |
| 117 ± 2 | > 10000 | 36 | > 1000 | 16 | 2440 | 1700 | 27 | > 10000 | 149 ± 28 | C#CCn1c(=O)c2c(nc3n2CCN(CCc2ccccc2)C3)n(CC)c1=O [Compound 20h, 1-ethyl-8-phenethyl-3-propargyl-6,7,8,9-tetrahydropyrazino[2,1-f]purine-2,4(1h,3h)-dione] |
